Test results published in ChEMBL document CHEMBL4393656, “Cationic biaryl 1,2,3-triazolyl peptidomimetic amphiphiles targeting Clostridioides (Clostridium) difficile: Synthesis, antibacterial evaluation and an in vivo C. difficile infection model” (Eur J Med Chem, 2019).

Columns and labels:
Acinetobacter baumannii = experiment: Growth inhibition of Acinetobacter baumannii ATCC 19606 incubated for 18 hrs without shaking by absorbance based monochromator plate reader analysis; type: organism-based, ATCC 19606 = CIP 70.34 = JCM 6841; conditions: in vitro
Clostridioides difficile [1] = experiment: Antibacterial activity against Clostridium difficile ATCC 700057 incubated for 2 to 4 hrs in pre-reduced brucella broth supplemented with haemin/vitamin K and further incubation in anaerobic condition for 48 hrs; type: functional
Enterococcus faecalis = experiment: Growth inhibition of Enterococcus faecalis ATCC 29212 incubated in MHB broth for 24 hrs; type: organism-based
Escherichia coli = experiment: Growth inhibition of Escherichia coli ATCC 25922 incubated for 18 hrs; type: organism-based
[2] = Cytotoxicity against HEK293 cells assessed as decrease in cell viability after 20 hrs by resazurin dye-based fluorescence assay; conditions: human
Streptococcus pneumoniae = experiment: Growth inhibition of Streptococcus pneumoniae ATCC 49619 incubated in MHB medium with lysed horse blood and 5% CO2 for 24 hrs; type: organism-based
Pseudomonas aeruginosa = experiment: Growth inhibition of Pseudomonas aeruginosa ATCC 27853 incubated for 18 hrs; type: organism-based
Clostridioides difficile [3] = experiment: Antibacterial activity against Clostridium difficile NSW132 RT027 incubated for 2 to 4 hrs in pre-reduced brucella broth supplemented with haemin/vitamin K and further incubation in anaerobic condition for 48 hrs; type: functional
Staphylococcus aureus [4] = experiment: Growth inhibition of methicillin-resistant Staphylococcus aureus ATCC 43300 incubated for 18 hrs; type: organism-based
Staphylococcus aureus [5] = experiment: Growth inhibition of Staphylococcus aureus ATCC 29213 incubated in MHB broth for 24 hrs; type: organism-based
Klebsiella pneumoniae = experiment: Growth inhibition of Klebsiella pneumoniae ATCC 700603 incubated for 18 hrs; type: organism-based

| Compound | MIC (Acinetobacter baumannii) | MIC (Clostridioides difficile [1]) | MIC (Enterococcus faecalis) | MIC (Escherichia coli) | CC50 at 20 h [2] | MIC (Streptococcus pneumoniae) | MIC (Pseudomonas aeruginosa) | MIC (Clostridioides difficile [3]) | MIC (Staphylococcus aureus [4]) | MIC (Staphylococcus aureus [5]) | MIC (Klebsiella pneumoniae) |
| --- | --- | --- | --- | --- | --- | --- | --- | --- | --- | --- | --- |
| CC(C)CCOc1ccc2ccccc2c1-c1c(OCC(=O)N[C@H](CCCNC(=N)N)C(=O)NCCc2ccc(F)cc2)ccc2ccccc12.Cl | > 32 µg/mL | > 128 µg/mL | > 128 µg/mL | > 32 µg/mL | > 32 µg/mL | > 128 µg/mL | > 32 µg/mL | 64 µg/mL | 4 µg/mL | > 128 µg/mL | > 32 µg/mL |
| CC(C)CCOc1ccccc1-c1ccccc1OCc1cn([C@H](CCCCN)C(=O)NCc2ccccc2)nn1.Cl | 32 µg/mL | 32 µg/mL | 16 µg/mL | > 32 µg/mL | > 32 µg/mL | 8 µg/mL | 32 µg/mL | 32 µg/mL |  | 8 µg/mL | > 32 µg/mL |
| CC(C)CCOc1ccccc1-c1ccccc1OCc1cn([C@H](CCCNC(=N)N)C(=O)NCCc2ccc(F)cc2)nn1.Cl | > 32 µg/mL | 64 µg/mL | 4 µg/mL | > 32 µg/mL | 19.1 µg/mL | 4 µg/mL | > 32 µg/mL | 64 µg/mL | 16 µg/mL | 4 µg/mL | > 32 µg/mL |
| CC(C)CCOc1ccccc1-c1ccccc1OCc1cn([C@H](CCCNC(=N)N)C(=O)NCc2cc(F)cc(F)c2)nn1.Cl | > 32 µg/mL | 32 µg/mL | 8 µg/mL | > 32 µg/mL | 22.9 µg/mL | 16 µg/mL | > 32 µg/mL | 32 µg/mL |  | 8 µg/mL | > 32 µg/mL |
| CC(C)CCOc1ccccc1-c1ccccc1OCc1cn([C@H](CCCNC(=N)N)C(=O)Nc2ccccc2)nn1.Cl | > 32 µg/mL | 16 µg/mL | 2 µg/mL | > 32 µg/mL | 21.6 µg/mL | 2 µg/mL | > 32 µg/mL | 32 µg/mL | 8 µg/mL | 2 µg/mL | > 32 µg/mL |
| CC(C)CCOc1ccccc1-c1ccccc1OCc1cn([C@H](CCCNC(=N)N)C(=O)NCc2ccc(C(F)(F)F)cc2)nn1.Cl | > 32 µg/mL | 128 µg/mL | 16 µg/mL | > 32 µg/mL | > 32 µg/mL | 32 µg/mL | > 32 µg/mL | 128 µg/mL |  | 16 µg/mL | > 32 µg/mL |
| CC(C)CCOc1ccc2ccccc2c1-c1c(OCc2cn([C@H](CCCNC(=N)N)C(=O)N[C@H](CCCCN)Cn3cc(CCc4ccccc4)nn3)nn2)ccc2ccccc12.Cl.Cl | 32 µg/mL | 16 µg/mL | 4 µg/mL | > 32 µg/mL | > 32 µg/mL | 2 µg/mL | 32 µg/mL | 16 µg/mL | 4 µg/mL | 4 µg/mL | > 32 µg/mL |
| COc1cc(NC(=O)[C@@H](CCCNC(=N)N)n2cc(COc3ccccc3-c3ccccc3OCCC(C)C)nn2)cc(OC)c1.Cl | > 32 µg/mL | 32 µg/mL | 4 µg/mL | > 32 µg/mL | 12.2 µg/mL | 4 µg/mL | > 32 µg/mL | 32 µg/mL | 8 µg/mL | 4 µg/mL | > 32 µg/mL |
| CC(C)CCOc1ccccc1-c1ccccc1OCc1cn([C@H](CCCCN)C(=O)N[C@H](CCCNC(=N)N)Cn2cc(Cc3ccccc3)nn2)nn1.Cl.Cl | 16 µg/mL | 8 µg/mL | 8 µg/mL | 8 µg/mL | 17.1 µg/mL | 4 µg/mL | 16 µg/mL | 16 µg/mL | 4 µg/mL | 4 µg/mL | 32 µg/mL |
| CC(C)CCOc1ccccc1-c1ccccc1OCc1cn([C@H](CCCNC(=N)N)C(=O)NCCc2ccccc2)nn1.Cl | 32 µg/mL | 8 µg/mL | 4 µg/mL | > 32 µg/mL | 17.9 µg/mL | 4 µg/mL | > 32 µg/mL | 32 µg/mL | 8 µg/mL | 2 µg/mL | > 32 µg/mL |
| CC(C)CCOc1ccccc1-c1ccccc1OCc1cn([C@H](CCCNC(=N)N)C(=O)NC2CC2)nn1.Cl | > 32 µg/mL | 64 µg/mL | 32 µg/mL | > 32 µg/mL | 20 µg/mL | 8 µg/mL | > 32 µg/mL | 128 µg/mL |  | 16 µg/mL | > 32 µg/mL |
| COLISTIN | 0.25 µg/mL |  |  | 0.125 µg/mL |  |  | 0.25 µg/mL |  |  |  | 0.25 µg/mL |
| CC(C)CCOc1ccccc1-c1ccccc1OCc1cn([C@H](CCCCN)C(=O)NCCc2ccccc2)nn1.Cl | 32 µg/mL | 32 µg/mL | 8 µg/mL | > 32 µg/mL | > 32 µg/mL | 8 µg/mL | > 32 µg/mL | 32 µg/mL | 8 µg/mL | 8 µg/mL | > 32 µg/mL |
| CCCN(CC1CC1)C(=O)[C@@H](CCCNC(=N)N)n1cc(COc2ccccc2-c2ccccc2OCCC(C)C)nn1.Cl | > 32 µg/mL | 16 µg/mL | 4 µg/mL | > 32 µg/mL | 19.7 µg/mL | 2 µg/mL | > 32 µg/mL | 16 µg/mL | 8 µg/mL | 4 µg/mL | > 32 µg/mL |
| CC(C)CCOc1ccccc1-c1ccccc1OCc1cn([C@H](CCCNC(=N)N)C(=O)NCC2CCCCC2)nn1.Cl | > 32 µg/mL | 32 µg/mL | 8 µg/mL | > 32 µg/mL | 16.9 µg/mL | 8 µg/mL | > 32 µg/mL | 64 µg/mL | 4 µg/mL | 4 µg/mL | > 32 µg/mL |
| CC(C)CCOc1ccccc1-c1ccccc1OCc1cn([C@H](CCCCN)C(=O)N[C@H](CCCNC(=N)N)Cn2cc(CC3CCCCC3)nn2)nn1.Cl.Cl | 8 µg/mL | 16 µg/mL | 4 µg/mL | 8 µg/mL | 19.1 µg/mL | 8 µg/mL | 32 µg/mL | 16 µg/mL | 2 µg/mL | 4 µg/mL | 16 µg/mL |
| CC(C)CCOc1ccccc1-c1ccccc1OCc1cn([C@H](CCCCN)C(=O)NCc2ccc(C(F)(F)F)cc2)nn1.Cl | 32 µg/mL | 32 µg/mL | 4 µg/mL | > 32 µg/mL | > 32 µg/mL | 8 µg/mL | > 32 µg/mL | 32 µg/mL | 8 µg/mL | 4 µg/mL | > 32 µg/mL |
| CC(C)CCOc1ccccc1-c1ccccc1OCc1cn([C@H](CCCNC(=N)N)C(=O)N[C@H](CCCCN)Cn2cc(Cc3ccccc3)nn2)nn1.Cl.Cl | 32 µg/mL | 32 µg/mL | 8 µg/mL | > 32 µg/mL | > 32 µg/mL | 4 µg/mL | 16 µg/mL | 16 µg/mL | 8 µg/mL | 8 µg/mL | 32 µg/mL |
| CC(C)CCOc1ccccc1-c1ccccc1OCc1cn([C@H](CCCNC(=N)N)C(=O)N[C@H](CCCCN)Cn2cc(C3CCCCC3)nn2)nn1.Cl.Cl | 16 µg/mL | 8 µg/mL | 8 µg/mL | 16 µg/mL | > 32 µg/mL | 2 µg/mL | 8 µg/mL | 16 µg/mL | 4 µg/mL | 8 µg/mL | 16 µg/mL |
| CC(C)CCOc1ccccc1-c1ccccc1OCc1cn([C@H](CCCCN)C(=O)N[C@H](CCCNC(=N)N)Cn2cc(C3CCCCC3)nn2)nn1.Cl.Cl | 8 µg/mL | 64 µg/mL | 16 µg/mL | 8 µg/mL | 19.8 µg/mL | 32 µg/mL | 16 µg/mL | 128 µg/mL | 4 µg/mL | 16 µg/mL | 16 µg/mL |
| CC(C)CCOc1ccc2ccccc2c1-c1c(OCc2cn([C@H](CCCCN)C(=O)N[C@H](CCCNC(=N)N)Cn3cc(CC4CCCCC4)nn3)nn2)ccc2ccccc12.Cl.Cl | 8 µg/mL | 16 µg/mL | 4 µg/mL | > 32 µg/mL | 16.6 µg/mL | 4 µg/mL | 32 µg/mL | 16 µg/mL | 2 µg/mL | 4 µg/mL | > 32 µg/mL |
